Assay results published in PMC8659337, “Motor domain-mediated autoinhibition dictates axonal transport by the kinesin UNC-104/KIF1A” (PLoS Genetics, 2021).
Numbering of substitutions follows the chain as printed.

Assays:
[1] = target: KIF13B T192Y-MD-NC-CC1 mutant (rat); experiment: crystal structure; crystals of the KIF13B T192Y-MD-NC-CC1 mutant (~25 mg/ml), 0.1 M Bis-Tris propane pH 8.2, 30% PEG 20000, sitting drop, 16°C; one molecule in the asymmetric unit, dimer formed by a crystallographic two-fold symmetry axis
[2] = target: T1, UNC-104 (MD-NC-CC1, residue 1-446) (Caenorhabditis elegans, UniProt P23678, C184Y); experiment: microtubule-stimulated ATPase assay; type: biochemical; conditions: microtubules present
T1 construct: MD-NC-CC1 fragment, residues 1-446, bacterial expression
T1 sequence (P23678 1-446 C184Y): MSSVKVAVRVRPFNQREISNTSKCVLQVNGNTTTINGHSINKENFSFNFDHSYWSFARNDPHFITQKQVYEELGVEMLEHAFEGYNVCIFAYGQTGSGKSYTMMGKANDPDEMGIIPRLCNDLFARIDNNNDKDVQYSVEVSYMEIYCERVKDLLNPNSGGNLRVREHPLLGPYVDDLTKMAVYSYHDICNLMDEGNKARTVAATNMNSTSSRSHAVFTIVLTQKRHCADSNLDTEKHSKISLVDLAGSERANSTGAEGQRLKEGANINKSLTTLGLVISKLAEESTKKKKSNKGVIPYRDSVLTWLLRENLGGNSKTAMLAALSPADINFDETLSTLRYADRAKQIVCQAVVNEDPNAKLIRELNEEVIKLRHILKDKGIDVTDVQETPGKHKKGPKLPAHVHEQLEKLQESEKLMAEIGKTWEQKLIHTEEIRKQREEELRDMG

[3] = target: T2, KIF13B MD-NC-CC1 (Rattus norvegicus, UniProt A0A0G2K8Z9, , form not given); experiment: microtubule-stimulated ATPase, malachite green phosphate endpoint assay; type: biochemical; conditions: microtubules present
T2 construct: MD-NC-CC1 fragment (motor domain, neck coil, CC1)
T2 sequence (A0A0G2K8Z9 48-490 T239Y limits assumed): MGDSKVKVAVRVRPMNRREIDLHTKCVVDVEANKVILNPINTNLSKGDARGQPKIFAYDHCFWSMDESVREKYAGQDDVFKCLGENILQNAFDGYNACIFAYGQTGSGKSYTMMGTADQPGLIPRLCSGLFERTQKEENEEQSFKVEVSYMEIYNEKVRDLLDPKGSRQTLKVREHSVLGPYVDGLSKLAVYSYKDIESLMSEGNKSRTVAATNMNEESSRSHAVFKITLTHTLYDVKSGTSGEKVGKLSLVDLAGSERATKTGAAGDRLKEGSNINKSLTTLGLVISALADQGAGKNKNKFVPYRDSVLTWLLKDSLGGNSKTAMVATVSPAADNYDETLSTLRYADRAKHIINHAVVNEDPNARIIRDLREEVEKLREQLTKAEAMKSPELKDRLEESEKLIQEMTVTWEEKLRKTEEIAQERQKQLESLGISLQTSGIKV

[4] = target: T3, KIF13B MD-NC-CC1 (Rattus norvegicus, UniProt A0A0G2K8Z9); experiment: as above; type: biochemical; conditions: microtubules present; autoinhibited wild type
T3 construct: MD-NC-CC1 fragment (motor domain, neck coil, CC1)
T3 sequence (A0A0G2K8Z9 48-490 limits assumed): T2 sequence (A0A0G2K8Z9 48-490 T239Y limits assumed) with Y192T

[5] = target: T4, UNC-104 (MD-NC-CC1, residue 1-446) (Caenorhabditis elegans, UniProt P23678); experiment: microtubule-stimulated ATPase assay; type: biochemical; conditions: microtubules present
T4 construct: MD-NC-CC1 fragment, residues 1-446, bacterial expression
T4 sequence (P23678 1-446): T1 sequence (P23678 1-446 C184Y) with Y184C

Row | Compound | stoichiometry N [1] | microtubule-stimulated ATPase assay [2] | microtubule-stimulated ATPase, malachite green phosphate endpoint assay [3] | microtubule-stimulated ATPase, malachite green phosphate endpoint assay [4] | microtubule-stimulated ATPase assay [5]
1 | KIF13B T192Y-MD-NC-CC1 mutant (domain or fragment) | 2 |  |  |  | 
2 | Nc1ncnc2c1ncn2[C@@H]1O[C@H](COP(=O)(O)OP(=O)(O)OP(=O)(O)O)[C@@H](O)[C@H]1O [ATP] |  | the C184Y mutant undergo a significant enhancement in its ATPase activity | both the T192Y and L397F mutations significantly restored the ATPase activity of the MD-NC-CC1 fragment | Microtubule-stimulated ATPase activity of the KIF13B MD-NC-CC1 fragment | the MD-NC-CC1 fragment of UNC-104 shows the moderate MT-stimulated ATPase activity
